How the values were obtained:
[1] = molecular target: Dual specificity mitogen-activated protein kinase kinase 1 (Homo sapiens) (UniProt Q02750); settings: Compound concentration 100.0 nM
[2] = molecular target: Mitotic checkpoint serine/threonine-protein kinase BUB1 (Homo sapiens) (UniProt O43683); settings: Compound concentration 100.0 nM
[3] = molecular target: Cyclin-dependent kinase-like 3 (Homo sapiens) (UniProt Q8IVW4); settings: Compound concentration 100.0 nM
[4] = molecular target: cGMP-dependent protein kinase 1 (Homo sapiens) (UniProt Q13976); settings: Compound concentration 100.0 nM
[5] = molecular target: Serine/threonine-protein kinase LATS2 (Homo sapiens) (UniProt Q9NRM7); settings: Compound concentration 100.0 nM
[6] = molecular target: Cyclin-dependent kinase 5 (Homo sapiens) (UniProt Q00535); settings: Compound concentration 100.0 nM
[7] = molecular target: Megakaryocyte-associated tyrosine-protein kinase (Homo sapiens) (UniProt P42679); settings: Compound concentration 100.0 nM
[8] = molecular target: Myotonin-protein kinase (Homo sapiens) (UniProt Q09013); settings: Compound concentration 100.0 nM
[9] = molecular target: Calcium-dependent protein kinase 1 (Plasmodium falciparum) (UniProt P62344); settings: Compound concentration 100.0 nM
[10] = molecular target: D(3) dopamine receptor (Homo sapiens) (UniProt P35462); settings: Compound concentration 10.0 uM
[11] = molecular target: Serine/threonine-protein kinase/endoribonuclease IRE1 (Homo sapiens) (UniProt O75460); settings: Compound concentration 100.0 nM
[12] = molecular target: Hepatocyte growth factor receptor (Homo sapiens) (UniProt P08581); settings: Compound concentration 100.0 nM
[13] = molecular target: Tyrosine-protein kinase JAK3 (Homo sapiens) (UniProt P52333); settings: Compound concentration 100.0 nM
[14] = molecular target: Phosphatidylinositol 4-kinase beta (Homo sapiens) (UniProt Q9UBF8); settings: Compound concentration 100.0 nM
[15] = molecular target: High affinity cGMP-specific 3',5'-cyclic phosphodiesterase 9A (Homo sapiens, UniProt O76083); assay: Biochemical assay (PDE9A)
[16] = molecular target: Tyrosine-protein kinase Yes (Homo sapiens) (UniProt P07947); settings: Compound concentration 100.0 nM
[17] = molecular target: cGMP-dependent protein kinase 2 (Homo sapiens) (UniProt Q13237); settings: Compound concentration 100.0 nM
[18] = test system: Epidermal growth factor receptor (Homo sapiens), P00533 [UNDEFINED MUTATION]; settings: Compound concentration 100.0 nM
[19] = molecular target: Dual specificity protein kinase TTK (Homo sapiens) (UniProt P33981); settings: Compound concentration 100.0 nM
[20] = test system: Receptor-type tyrosine-protein kinase FLT3 (Homo sapiens), P36888 [N841I]; settings: Compound concentration 100.0 nM
[21] = test system: Phosphatidylinositol 4,5-bisphosphate 3-kinase catalytic subunit alpha isoform (Homo sapiens), P42336 [E545A]; settings: Compound concentration 100.0 nM
[22] = molecular target: Rhodopsin kinase GRK7 (Homo sapiens) (UniProt Q8WTQ7); settings: Compound concentration 100.0 nM
[23] = molecular target: Protein kinase C theta type (Homo sapiens) (UniProt Q04759); settings: Compound concentration 100.0 nM
[24] = molecular target: Tyrosine-protein kinase receptor Tie-1 (Homo sapiens) (UniProt P35590); settings: Compound concentration 100.0 nM
[25] = molecular target: Beta-1 adrenergic receptor (Homo sapiens) (UniProt P08588); settings: Compound concentration 10.0 uM
[26] = test system: Receptor-type tyrosine-protein kinase FLT3 (Homo sapiens), P36888 [UNDEFINED MUTATION]; settings: Compound concentration 100.0 nM
[27] = molecular target: G protein-coupled receptor kinase 3 (Homo sapiens) (UniProt P35626); settings: Compound concentration 100.0 nM
[28] = molecular target: Serine/threonine-protein kinase 33 (Homo sapiens) (UniProt Q9BYT3); settings: Compound concentration 100.0 nM
[29] = test system: ALK tyrosine kinase receptor (Homo sapiens), Q9UM73 [C1156Y]; settings: Compound concentration 100.0 nM
[30] = molecular target: Ephrin type-A receptor 1 (Homo sapiens) (UniProt P21709); settings: Compound concentration 100.0 nM
[31] = molecular target: Tyrosine-protein kinase Lyn (Homo sapiens) (UniProt P07948); settings: Compound concentration 100.0 nM
[32] = molecular target: Tyrosine-protein kinase Fgr (Homo sapiens) (UniProt P09769); settings: Compound concentration 100.0 nM
[33] = molecular target: 5-hydroxytryptamine receptor 1B (Homo sapiens) (UniProt P28222); settings: Compound concentration 10.0 uM
[34] = molecular target: Cyclin-dependent kinase 13 (Homo sapiens) (UniProt Q14004); settings: Compound concentration 100.0 nM
[35] = molecular target: Mitogen-activated protein kinase kinase kinase 1 (Homo sapiens) (UniProt Q13233); settings: Compound concentration 100.0 nM
[36] = molecular target: Mast/stem cell growth factor receptor Kit (Homo sapiens) (UniProt P10721); settings: Compound concentration 100.0 nM
[37] = molecular target: Serine/threonine-protein kinase RIO3 (Homo sapiens) (UniProt O14730); settings: Compound concentration 100.0 nM
[38] = molecular target: MAP kinase-interacting serine/threonine-protein kinase 1 (Homo sapiens) (UniProt Q9BUB5); settings: Compound concentration 100.0 nM
[39] = molecular target: Mitogen-activated protein kinase 3 (Homo sapiens) (UniProt P27361); settings: Compound concentration 100.0 nM
[40] = molecular target: cAMP-dependent protein kinase catalytic subunit beta (Homo sapiens) (UniProt P22694); settings: Compound concentration 100.0 nM
[41] = molecular target: Non-receptor tyrosine-protein kinase TNK1 (Homo sapiens) (UniProt Q13470); settings: Compound concentration 100.0 nM
[42] = molecular target: 5-hydroxytryptamine receptor 2A (Homo sapiens) (UniProt P28223); settings: Compound concentration 10.0 uM
[43] = test system: Hepatocyte growth factor receptor (Homo sapiens), P08581 [Y1235D]; settings: Compound concentration 100.0 nM
[44] = test system: Epidermal growth factor receptor (Homo sapiens), P00533 [L858R]; settings: Compound concentration 100.0 nM
[45] = molecular target: AP2-associated protein kinase 1 (Homo sapiens) (UniProt Q2M2I8); settings: Compound concentration 100.0 nM

cGMP-dependent protein kinase 2 (Homo sapiens), sequence (Q13237 whole entry): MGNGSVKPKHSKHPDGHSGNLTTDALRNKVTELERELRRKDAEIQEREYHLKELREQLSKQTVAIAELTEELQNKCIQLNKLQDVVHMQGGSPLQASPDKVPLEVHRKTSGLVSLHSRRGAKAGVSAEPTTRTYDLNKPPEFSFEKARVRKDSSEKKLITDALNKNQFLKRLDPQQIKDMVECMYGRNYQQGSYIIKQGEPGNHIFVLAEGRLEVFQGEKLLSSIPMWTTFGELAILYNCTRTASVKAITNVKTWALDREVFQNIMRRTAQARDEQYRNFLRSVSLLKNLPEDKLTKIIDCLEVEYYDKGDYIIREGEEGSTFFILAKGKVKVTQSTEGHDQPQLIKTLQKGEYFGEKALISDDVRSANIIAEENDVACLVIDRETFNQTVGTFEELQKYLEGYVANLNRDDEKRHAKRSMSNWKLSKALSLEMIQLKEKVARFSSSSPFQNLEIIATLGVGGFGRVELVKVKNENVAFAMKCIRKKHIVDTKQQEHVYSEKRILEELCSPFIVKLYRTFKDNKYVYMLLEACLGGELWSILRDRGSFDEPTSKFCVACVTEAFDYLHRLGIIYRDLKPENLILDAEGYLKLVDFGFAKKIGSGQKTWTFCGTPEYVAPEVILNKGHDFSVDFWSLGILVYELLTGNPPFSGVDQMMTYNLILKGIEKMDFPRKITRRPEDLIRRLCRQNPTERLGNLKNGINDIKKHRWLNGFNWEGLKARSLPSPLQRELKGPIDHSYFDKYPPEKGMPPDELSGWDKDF
Tyrosine-protein kinase Yes (Homo sapiens), sequence (P07947 2-543 limits assumed): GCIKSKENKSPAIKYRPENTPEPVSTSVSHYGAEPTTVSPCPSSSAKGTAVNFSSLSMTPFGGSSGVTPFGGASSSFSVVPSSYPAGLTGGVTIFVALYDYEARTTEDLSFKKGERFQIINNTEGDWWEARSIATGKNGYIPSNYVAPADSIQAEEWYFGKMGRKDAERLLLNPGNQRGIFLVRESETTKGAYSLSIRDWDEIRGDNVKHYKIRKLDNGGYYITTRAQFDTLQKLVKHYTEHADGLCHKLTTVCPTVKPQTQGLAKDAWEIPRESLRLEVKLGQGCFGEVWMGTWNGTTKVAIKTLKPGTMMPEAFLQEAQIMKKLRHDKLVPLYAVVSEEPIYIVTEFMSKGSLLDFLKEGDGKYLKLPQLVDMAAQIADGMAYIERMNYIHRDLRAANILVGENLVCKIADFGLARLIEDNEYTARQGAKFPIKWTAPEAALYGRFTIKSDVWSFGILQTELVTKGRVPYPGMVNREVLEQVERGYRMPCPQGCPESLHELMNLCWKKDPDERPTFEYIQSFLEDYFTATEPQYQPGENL
cGMP-dependent protein kinase 1 (Homo sapiens), sequence (Q13976 whole entry): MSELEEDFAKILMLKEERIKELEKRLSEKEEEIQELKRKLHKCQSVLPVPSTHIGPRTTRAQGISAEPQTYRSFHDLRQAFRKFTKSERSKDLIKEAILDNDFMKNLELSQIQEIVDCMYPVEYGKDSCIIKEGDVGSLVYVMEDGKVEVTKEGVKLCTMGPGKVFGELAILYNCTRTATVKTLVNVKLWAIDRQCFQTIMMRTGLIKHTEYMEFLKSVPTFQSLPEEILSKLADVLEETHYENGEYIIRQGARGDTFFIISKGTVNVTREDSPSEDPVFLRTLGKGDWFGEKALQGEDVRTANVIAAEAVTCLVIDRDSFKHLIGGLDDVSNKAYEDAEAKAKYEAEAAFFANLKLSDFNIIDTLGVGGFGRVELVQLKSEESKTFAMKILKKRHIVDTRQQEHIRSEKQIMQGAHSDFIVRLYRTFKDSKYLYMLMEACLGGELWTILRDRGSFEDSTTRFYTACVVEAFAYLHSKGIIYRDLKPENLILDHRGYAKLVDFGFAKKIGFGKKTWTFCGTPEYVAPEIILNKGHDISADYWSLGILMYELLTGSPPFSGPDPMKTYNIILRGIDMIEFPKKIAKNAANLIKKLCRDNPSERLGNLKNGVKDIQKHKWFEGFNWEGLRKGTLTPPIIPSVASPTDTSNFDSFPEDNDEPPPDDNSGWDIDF
D(3) dopamine receptor (Homo sapiens), sequence (P35462 whole entry): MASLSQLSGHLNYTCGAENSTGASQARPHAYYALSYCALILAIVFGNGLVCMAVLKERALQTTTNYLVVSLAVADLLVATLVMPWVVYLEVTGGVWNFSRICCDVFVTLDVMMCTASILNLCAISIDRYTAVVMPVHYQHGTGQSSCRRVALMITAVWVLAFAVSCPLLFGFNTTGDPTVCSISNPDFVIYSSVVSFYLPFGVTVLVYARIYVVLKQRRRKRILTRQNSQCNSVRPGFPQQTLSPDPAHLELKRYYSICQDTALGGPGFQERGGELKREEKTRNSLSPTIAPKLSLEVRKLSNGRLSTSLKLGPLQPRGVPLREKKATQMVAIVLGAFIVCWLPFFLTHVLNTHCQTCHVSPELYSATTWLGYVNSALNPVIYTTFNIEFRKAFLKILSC
Phosphatidylinositol 4,5-bisphosphate 3-kinase catalytic subunit alpha isoform (Homo sapiens), P42336 [E545A], sequence (P42336 whole entry E545A, canonical isoform): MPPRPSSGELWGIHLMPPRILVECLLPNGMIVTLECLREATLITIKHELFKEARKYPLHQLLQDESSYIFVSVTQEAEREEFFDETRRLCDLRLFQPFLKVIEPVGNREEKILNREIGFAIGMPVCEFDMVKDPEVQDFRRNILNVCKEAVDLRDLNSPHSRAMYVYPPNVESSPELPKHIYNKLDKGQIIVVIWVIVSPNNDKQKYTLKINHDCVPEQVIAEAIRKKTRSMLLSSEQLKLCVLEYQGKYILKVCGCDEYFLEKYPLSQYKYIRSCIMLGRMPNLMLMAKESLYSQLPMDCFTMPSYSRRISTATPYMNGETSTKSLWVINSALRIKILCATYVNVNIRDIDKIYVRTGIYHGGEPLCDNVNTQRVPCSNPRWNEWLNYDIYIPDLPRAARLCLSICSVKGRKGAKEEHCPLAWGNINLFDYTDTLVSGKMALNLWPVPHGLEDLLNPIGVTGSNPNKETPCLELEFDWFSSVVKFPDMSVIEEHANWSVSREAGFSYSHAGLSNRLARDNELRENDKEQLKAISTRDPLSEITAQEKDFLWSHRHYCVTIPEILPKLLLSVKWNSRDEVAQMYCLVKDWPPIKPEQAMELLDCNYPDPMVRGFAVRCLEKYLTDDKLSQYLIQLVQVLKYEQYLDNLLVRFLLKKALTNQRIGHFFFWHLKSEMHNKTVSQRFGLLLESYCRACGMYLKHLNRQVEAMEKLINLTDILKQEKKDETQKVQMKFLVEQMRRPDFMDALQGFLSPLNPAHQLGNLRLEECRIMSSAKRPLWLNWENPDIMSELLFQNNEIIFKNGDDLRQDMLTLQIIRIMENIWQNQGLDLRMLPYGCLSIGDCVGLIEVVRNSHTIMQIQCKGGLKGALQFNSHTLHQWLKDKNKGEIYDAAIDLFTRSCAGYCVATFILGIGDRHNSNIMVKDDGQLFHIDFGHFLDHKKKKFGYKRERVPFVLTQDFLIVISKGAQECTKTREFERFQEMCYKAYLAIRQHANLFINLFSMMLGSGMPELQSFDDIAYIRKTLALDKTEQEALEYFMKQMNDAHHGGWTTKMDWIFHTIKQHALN
Tyrosine-protein kinase Lyn (Homo sapiens), sequence (P07948 2-512 limits assumed): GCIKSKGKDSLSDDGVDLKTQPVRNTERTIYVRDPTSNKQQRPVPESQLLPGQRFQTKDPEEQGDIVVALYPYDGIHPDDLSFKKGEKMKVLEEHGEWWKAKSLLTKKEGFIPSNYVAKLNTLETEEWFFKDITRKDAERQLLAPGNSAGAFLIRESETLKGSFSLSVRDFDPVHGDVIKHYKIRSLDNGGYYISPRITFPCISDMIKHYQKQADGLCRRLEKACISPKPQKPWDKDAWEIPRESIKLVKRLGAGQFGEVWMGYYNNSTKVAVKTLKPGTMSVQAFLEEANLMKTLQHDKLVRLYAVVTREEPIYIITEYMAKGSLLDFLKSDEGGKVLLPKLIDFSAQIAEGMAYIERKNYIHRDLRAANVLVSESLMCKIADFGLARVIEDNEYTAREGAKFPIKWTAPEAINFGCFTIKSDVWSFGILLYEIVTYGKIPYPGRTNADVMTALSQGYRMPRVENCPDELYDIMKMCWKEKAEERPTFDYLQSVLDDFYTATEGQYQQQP
Mast/stem cell growth factor receptor Kit (Homo sapiens), sequence (P10721 whole entry): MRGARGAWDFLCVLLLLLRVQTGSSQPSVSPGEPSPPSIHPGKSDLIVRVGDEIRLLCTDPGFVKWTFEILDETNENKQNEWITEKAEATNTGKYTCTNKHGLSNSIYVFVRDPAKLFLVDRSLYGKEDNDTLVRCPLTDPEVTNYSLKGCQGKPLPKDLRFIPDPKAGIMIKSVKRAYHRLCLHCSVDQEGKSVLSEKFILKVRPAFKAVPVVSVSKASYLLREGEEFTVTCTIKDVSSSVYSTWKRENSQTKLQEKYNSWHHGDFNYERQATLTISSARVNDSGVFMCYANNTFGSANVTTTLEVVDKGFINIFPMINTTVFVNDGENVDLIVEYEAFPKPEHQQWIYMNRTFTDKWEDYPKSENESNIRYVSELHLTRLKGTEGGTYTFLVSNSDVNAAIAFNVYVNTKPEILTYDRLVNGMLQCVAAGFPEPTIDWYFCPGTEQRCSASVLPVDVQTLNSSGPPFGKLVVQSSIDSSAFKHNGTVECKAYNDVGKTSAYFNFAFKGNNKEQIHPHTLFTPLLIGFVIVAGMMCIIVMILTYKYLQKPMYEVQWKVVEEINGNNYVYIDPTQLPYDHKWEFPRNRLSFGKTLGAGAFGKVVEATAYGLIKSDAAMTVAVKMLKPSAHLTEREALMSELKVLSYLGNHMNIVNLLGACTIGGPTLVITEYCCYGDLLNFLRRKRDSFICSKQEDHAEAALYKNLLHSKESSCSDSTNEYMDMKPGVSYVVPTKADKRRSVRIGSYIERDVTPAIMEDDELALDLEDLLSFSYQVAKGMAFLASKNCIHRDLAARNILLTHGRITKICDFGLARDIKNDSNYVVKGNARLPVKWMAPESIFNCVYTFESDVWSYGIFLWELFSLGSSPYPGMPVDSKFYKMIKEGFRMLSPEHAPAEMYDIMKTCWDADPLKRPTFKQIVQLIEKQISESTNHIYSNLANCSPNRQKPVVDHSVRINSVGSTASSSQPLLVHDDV

Q: What does the source list for `CC(C)CC(=O)N1CCc2nc(-c3ccc(Br)cc3)nc(N(C)Cc3ccccc3)c2C1` [THPP-1-NC]?
A: residual activity [1]: 100%; residual activity [2]: 78%; residual activity [3]: 89%; residual activity [4]: 74%; residual activity [5]: 94%; residual activity [6]: 100%; residual activity [7]: 100%; residual activity [8]: 87%; residual activity [9]: 100%; inhibition [10]: 5.44%; residual activity [11]: 100%; residual activity [12]: 99%; residual activity [13]: 98%; residual activity [14]: 100%; Ki [15]: > 54.6 µM (not active); residual activity [16]: 100%; residual activity [17]: 100%; residual activity [18]: 100%; residual activity [19]: 100%; residual activity [20]: 100%; residual activity [21]: 100%; residual activity [22]: 74%; residual activity [23]: 100%; residual activity [24]: 100%; inhibition [25]: 29.5%; residual activity [26]: 99%; residual activity [27]: 100%; residual activity [28]: 74%; residual activity [29]: 100%; residual activity [30]: 100%; residual activity [31]: 88%; residual activity [32]: 99%; inhibition [33]: 12.9%; residual activity [34]: 100%; residual activity [35]: 100%; residual activity [36]: 100%; residual activity [37]: 100%; residual activity [38]: 69%; residual activity [39]: 88%; residual activity [40]: 82%; residual activity [41]: 100%; inhibition [42]: 3%; residual activity [43]: 100%; residual activity [44]: 94%; residual activity [45]: 100%

Q: Which residual activity [1] does the source give for `COCCOc1nc(-c2ccc(Cl)nc2)nc2c1CN(C(=O)c1ncn3ccccc13)CC2` [THPP-1] here?
A: The residual activity was 100%.

Q: What about the residual activity [2] of the same molecule?
A: Its residual activity is 82%.

Q: And the residual activity [3]?
A: The residual activity was 96%.

Q: And the residual activity [4]?
A: The residual activity was 87%.

Q: What about the residual activity [5] of the same molecule?
A: Its residual activity is 68%.

Q: What about the residual activity [6] of the same molecule?
A: The residual activity was 100%.

Q: What about the residual activity [7] of the same molecule?
A: Its residual activity is 100%.

Q: What about the residual activity [8] of the same molecule?
A: Its residual activity is 72%.

Q: And the residual activity [9]?
A: Its residual activity is 100%.

Q: And the inhibition [10]?
A: The inhibition was -6.15%.

Q: And the residual activity [11]?
A: Its residual activity is 100%.

Q: What about the residual activity [12] of the same molecule?
A: Its residual activity is 100%.

Q: What about the residual activity [13] of the same molecule?
A: The residual activity was 93%.

Q: And the residual activity [14]?
A: Its residual activity is 100%.

Q: What about the Ki [15] of the same molecule?
A: Its Ki is > 50 µM (not active).

Q: And the residual activity [16]?
A: Its residual activity is 100%.

Q: And the residual activity [17]?
A: Its residual activity is 100%.

Q: What about the residual activity [18] of the same molecule?
A: The residual activity was 100%.

Q: What about the residual activity [19] of the same molecule?
A: The residual activity was 100%.

Q: And the residual activity [20]?
A: The residual activity was 100%.

Q: And the residual activity [21]?
A: The residual activity was 100%.

Q: What about the residual activity [22] of the same molecule?
A: Its residual activity is 91%.

Q: And the residual activity [23]?
A: Its residual activity is 100%.

Q: And the residual activity [24]?
A: The residual activity was 100%.

Q: And the inhibition [25]?
A: The inhibition was 16.8%.

Q: And the residual activity [26]?
A: Its residual activity is 96%.

Q: What about the residual activity [27] of the same molecule?
A: The residual activity was 100%.

Q: And the residual activity [28]?
A: The residual activity was 53%.

Q: What about the residual activity [29] of the same molecule?
A: Its residual activity is 100%.

Q: What about the residual activity [30] of the same molecule?
A: The residual activity was 100%.

Q: And the residual activity [31]?
A: The residual activity was 73%.

Q: And the residual activity [32]?
A: Its residual activity is 100%.

Q: And the inhibition [33]?
A: Its inhibition is 23.3%.

Q: What about the residual activity [34] of the same molecule?
A: Its residual activity is 100%.

Q: And the residual activity [35]?
A: Its residual activity is 100%.

Q: What about the residual activity [36] of the same molecule?
A: Its residual activity is 100%.

Q: What about the residual activity [37] of the same molecule?
A: The residual activity was 100%.

Q: And the residual activity [38]?
A: Its residual activity is 77%.

Q: And the residual activity [39]?
A: The residual activity was 89%.

Q: And the residual activity [40]?
A: Its residual activity is 73%.

Q: And the residual activity [41]?
A: The residual activity was 100%.

Q: And the inhibition [42]?
A: The inhibition was -1.4%.

Q: And the residual activity [43]?
A: Its residual activity is 100%.

Q: And the residual activity [44]?
A: Its residual activity is 83%.

Q: And the residual activity [45]?
A: Its residual activity is 100%.
